The text below walks through data of patent US11427548B2 (Arvinas Operations, Inc., priority 2015, dated 2022).

In this assay the target is T1, Androgen Receptor (Homo sapiens, UniProt P10275).
T1 construct: endogenous in cells; host or cells: VCaP cells
T1 sequence (P10275 1-920): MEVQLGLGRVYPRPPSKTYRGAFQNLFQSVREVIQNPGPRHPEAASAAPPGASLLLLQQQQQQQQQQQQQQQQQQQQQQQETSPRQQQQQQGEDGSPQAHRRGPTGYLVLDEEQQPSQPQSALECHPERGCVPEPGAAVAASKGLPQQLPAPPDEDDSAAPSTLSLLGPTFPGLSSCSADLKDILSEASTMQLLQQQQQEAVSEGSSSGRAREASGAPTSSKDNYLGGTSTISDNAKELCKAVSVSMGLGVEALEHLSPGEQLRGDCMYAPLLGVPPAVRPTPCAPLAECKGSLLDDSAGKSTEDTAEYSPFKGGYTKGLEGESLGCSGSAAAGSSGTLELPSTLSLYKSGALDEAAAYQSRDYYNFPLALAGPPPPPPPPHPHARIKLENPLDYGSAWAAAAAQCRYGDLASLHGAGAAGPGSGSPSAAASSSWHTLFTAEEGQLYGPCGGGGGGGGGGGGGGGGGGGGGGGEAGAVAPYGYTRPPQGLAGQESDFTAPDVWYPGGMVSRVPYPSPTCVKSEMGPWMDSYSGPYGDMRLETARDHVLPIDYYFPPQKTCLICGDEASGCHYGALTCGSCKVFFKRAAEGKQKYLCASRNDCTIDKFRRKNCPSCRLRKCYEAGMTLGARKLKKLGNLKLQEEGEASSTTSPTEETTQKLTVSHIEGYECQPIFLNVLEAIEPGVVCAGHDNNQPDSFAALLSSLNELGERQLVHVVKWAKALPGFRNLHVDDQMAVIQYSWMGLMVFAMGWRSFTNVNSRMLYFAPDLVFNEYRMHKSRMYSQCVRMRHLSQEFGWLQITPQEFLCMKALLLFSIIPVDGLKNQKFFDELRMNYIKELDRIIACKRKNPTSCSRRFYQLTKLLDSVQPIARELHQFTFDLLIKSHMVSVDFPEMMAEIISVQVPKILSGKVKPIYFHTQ
Briefly: Androgen Receptor ELISA assay (PathScan AR ELISA) in VCaP cells: AR degradation, Dmax and DC50. Format: cell-based. The note with it: VCaP cells, Table 36; for DC50: read-out: VCaP DC50; for Dmax: VCaP, read-out: VCaP Dmax (%). Summed up: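 VCaP cells in phenol red-free RPMI with 5% charcoal-stripped FBS were grown at least 3 days, then given compound as 7 half-log doses in 0.1% DMSO with 0.1 nM R1881 for 24 h. Lysates went into a sandwich AR ELISA with TMB read at 450 nm.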
In general terms: In an ELISA, binding on a coated surface is turned into a signal by an enzyme label.

Consider `CC(C)C[C@H](OCCN1CCN(c2ccc(C(=O)N[C@H]3C(C)(C)[C@H](Oc4ccc(C#N)c(Cl)c4)C3(C)C)cn2)CC1)C(=O)N[C@H](C(=O)N1C[C@H](O)C[C@H]1C(=O)NCc1ccc(Cl)cc1)C(C)C` [Example 726, N-((1r,3r)-3-(3-chloro-4-cyanophenoxy)-2,2,4,4-tetramethylcyclobutyl)-6-(4-(2-(((S)-1-(((S)-1-((2S,4R)-2-((4-chlorobenzyl)carbamoyl)-4-hydroxypyrrolidin-1-yl)-3-methyl-1-oxobutan-2-yl)amino)-4-methyl-1-oxopentan-2-yl)oxy)ethyl)piperazin-1-yl)nicotinamide], for which the DC50 was > 501 nM and the Dmax was < 25%.

With `CC(C)C[C@H](OCCN1CCN(c2ccc(C(=O)N[C@H]3C(C)(C)[C@H](Oc4ccc(C#N)c(Cl)c4)C3(C)C)cn2)CC1)C(=O)N[C@H](C(=O)N1C[C@H](O)C[C@H]1C(=O)NCc1ccc(Cl)cc1)C(C)(C)C` [Example 727, N-((1r,3r)-3-(3-chloro-4-cyanophenoxy)-2,2,4,4-tetramethylcyclobutyl)-6-(4-(2-(((S)-1-(((S)-1-((2S,4R)-2-((4-chlorobenzyl)carbamoyl)-4-hydroxypyrrolidin-1-yl)-3,3-dimethyl-1-oxobutan-2-yl)amino)-4-methyl-1-oxopentan-2-yl)oxy)ethyl)piperazin-1-yl)nicotinamide], the DC50 is > 501 nM and the Dmax was < 25%.

For `Cc1ncsc1-c1ccc([C@H](C)NC(=O)[C@@H]2C[C@@H](O)CN2C(=O)[C@@H](NC(=O)OC(C)(C)C)[C@@H](C)OCCCN(C)CCc2ccc(C(=O)N[C@H]3C(C)(C)[C@H](Oc4ccc(C#N)c(Cl)c4)C3(C)C)cc2)cc1` [Example 729, tert-butyl ((2S,3R)-3-(3-((4-(((1r,3r)-3-(3-chloro-4-cyanophenoxy)-2,2,4,4-tetramethylcyclobutyl)carbamoyl)phenethyl)(meth-yl)amino)propoxy)-1-((2S,4R)-4-hydroxy-2-(((S)-1-(4-(4-methylthiazol-5-yl)phenyl)ethyl)carbam-oyl)pyrrolidin-1-yl)-1-oxobutan-2-yl)carbamate], the DC50 is > 501 nM and the Dmax was < 25%.

Regarding `Cc1ncsc1-c1ccc(C(C)NC(=O)[C@@H]2C[C@@H](O)CN2C(=O)[C@@H](N)[C@@H](C)OCCCN(C)CCc2ccc(C(=O)N[C@H]3C(C)(C)[C@H](Oc4ccc(C#N)c(Cl)c4)C3(C)C)cc2)cc1` (stereo partly drawn) [Example 730, (2S,4R)-1-(O-(3-((4-(((1r,3r)-3-(3-chloro-4-cyanophenoxy)-2,2,4,4-tetramethylcyclobutyl)carbamoyl)phenethyl)(meth-yl)amino)propyl)-L-threonyl)-4-hydroxy-N-((S)-1-(4-(4-methylthiazol-5-yl)phenyl)ethyl)pyrrolidine-2-carboxamide], the DC50 was > 501 nM and the Dmax is < 25%.

For `CC(C)[C@H](OCCN1CCN(c2ccc(C(=O)N[C@H]3C(C)(C)[C@H](Oc4ccc(C#N)c(Cl)c4)C3(C)C)cn2)CC1)C(=O)N[C@@H](C)C(=O)N1C[C@H](O)C[C@H]1C(=O)NCc1ccc(Cl)cc1` [Example 731, N-((1r,3r)-3-(3-chloro-4-cyanophenoxy)-2,2,4,4-tetramethylcyclobutyl)-6-(4-(2-(((S)-1-(((S)-1-((2S,4R)-2-((4-chlorobenzyl)carbamoyl)-4-hydroxypyrrolidin-1-yl)-1-oxopropan-2-yl)amino)-3-methyl-1-oxobutan-2-yl)oxy)ethyl)piperazin-1-yl)nicotinamide], the DC50 was > 501 nM and the Dmax was < 25%.

A word on the DC50: it is the concentration at which degradation of the target reaches its halfway point. What is called Dmax is the largest share of the target that was removed.
